Measurements as given in patent US6673566B1 (priority 2002, dated 2004).
“Also recorded” adds a separate entry of the source.

Tests used:
[1] = test system: white-tailed deer adherent peripheral blood mononuclear cells; assay: Nitrite production (Griess reaction) by white-tailed deer monocyte-derived macrophages stimulated with M. haemolytica LPS; format: cell-based; conditions: cells stimulated with LPS in the presence of L-NMMA (1.15 mM)
Experimental: Monocytes were isolated from buffy coat fractions of peripheral blood of non-infected deer by adherence in 25 cm^2 flasks at 37° C. for 1 hr. Cells were cultured for 2 wk at 37° C. with 5% CO2 in RPMI 1640 (Gibco, Invitrogen Life Technologies, Frederick, Md., USA) supplemented with L-glutamine, penicillin, streptomycin, 2-ME, 10% heat-inactivated fetal calf serum, and 10% heat-inactivated white-tailed deer serum. Medium was changed every 3-4 days during the culture period. […]
Nitrite is the stable oxidation product of NO and the amount of nitrite within culture supernatants is indicative of the amount of NO produced by cells in culture. Nitrite was measured using the Griess reaction (Rajaraman et al., 1998, Effect of vitamins A and E on nitric oxide production by blood mononuclear leukocytes from neonatal calves fed milk replacer, Journal of Dairy Science, 81:3,278-3,285) performed in 96-well microtiter plates (Immunolon 2, Dynatech Laboratories, Inc., Chantilly, Va., USA). […] Absorbencies of test and standard samples at 550 nm were measured using an automated ELISA plate reader (Molecular Devices, Menlo Park, Calif., USA). […]
Data were analyzed by one-way analysis of variance followed by Tukey-Kramer multiple comparisons test. […]

[2] = test system: PBMC from Mycobacterium bovis-infected white-tailed deer; format: cell-based

With `CNC(=N)NCCC[C@H](N)C(=O)O` [L-NMMA, N^G-monomethyl-L-arginine] the “Nitrite levels versus non-stimulated cultures” value [1] was “did not differ” and the “Effect of L-NMMA on antigen-stimulated nitrite production” value [2] was “inhibited; also recorded: ablated this response; also recorded: abrogated”.
